What was measured:
[1] = tested on: Gram positive cocci (Separate); experiment: Anti-bacterial activity, agar well zone of inhibition; type: cell-based; details: 48 h
Method: (§1) Nutrient broth was prepared by dissolving 0.2 g in 25 mL distilled water in erlenmeyer flask. The flask was then sterilized in an autoclave at the 121° C. for 15 minutes after applying cotton plug to cover its mouth. This growth media was utilized to prepare inoculums of all strains of bacteria. After adding a loop full of bacterial strain in it, the flask was placed in shaking incubator at 37° C. for the night. The plates were inoculated after the incubated broth was diluted up to 10^−2.
(§2) 0.8 g nutrient broth and 2 g of agar were added to 100 mL autoclaved water in an erlenmeyer flask. Apply cotton plug to the flask and then sterilize it in an autoclave at the 121° C. for 15 minutes. Each petri plate was poured with 15-20 mL of agar which was then solidified and inoculated with the bacterial strain. 50 μL of sample suspension was poured in wells that have the diameter of 0.4 cm. All sample suspensions were made by adding 5 mg of product in 1 mL distilled water. Zones of inhibition were observed after keeping these plates at 37° C. for 48 hours.

[2] = tested on: Gram positive Streptococci; experiment: as above; type: cell-based; details: 50 μL of 5 mg/mL suspension in 0.4 cm wells, 37° C. for 48 hours
Method: as §1, §2

Gram positive sarccina = experiment: as above; type: cell-based; details: 50 μL of 5 mg/mL suspension in 0.4 cm wells, 37° C. for 48 hours
Method: as §1, §2

[3] = In-vitro drug release / drug entrapment efficiency in PBS by UV spectroscopy at 278 nm; type: physicochemical
Method: 30 mg of CHL-loaded nanoparticles were dispersed and homogenized in 100 mL of PBS, pH 7.4 (purchased from Sigma Aldrich) which releases all entrapped CHL from the nanocomposite. Before homogenization, nanocomposite formulation was cleared from free drug molecules by washing with distilled water. Ultraviolet (UV) spectroscopy at a wavelength of 278 nm was employed for completely developing entire content of entrapped chloramphenicol in triplicates. A solution of drug-free nanocomposite (30 mg) in distilled water was employed as a reference, thus reducing the chances of interference by excipients and polymer used to prepare the nanocomposite. Following equation was utilized to evaluate drug entrapment efficiency (DEE) value, as was reported in a paper by Harilall S, Choonara Y E. et al. %DEE=D1/D2*100 Where D1 is the actual quantity of drug (mg/100 mL) and D2 is the theoretical quantity of drug (mg/100 mL) entrapped within the formulation. Precision of the results was made certain by calculating the average DEE of five samples.
An in-vitro drug release study was conducted on the basis of a paper reported by Harilall S, Choonara Y E. et al. for the zidovudine release study. CHL-loaded nanocomposite, nanocomposite and commercially available CHL were submerged in 100 mL PBS discretely and then sited these set of preparations in an orbital shaking incubator (20 rpms, 37° C.). Portions of these preparations were taken at altered time interims for 48 hours and substituted by equal quantities of buffer solution and were evaluated by UV spectroscopy for CHL absorption at a wavelength of 278 nm.

## O=C(N[C@H](CO)[C@H](O)c1ccc([N+](=O)[O-])cc1)C(Cl)Cl [CHL, chloramphenicol]
[1]
  zone of inhibition at 5000 µg/mL: 4 mm
[2]
  zone of inhibition at 5000 µg/mL: 6 mm
Gram positive sarccina
  zone of inhibition at 5000 µg/mL: 2 mm
[3]; PBS
  Time in which almost the whole drug is released: 3 to 4 h
[3]; first hour of exposure to PBS, 37° C.
  DEE (FIG. 7, in-vitro drug release): 91%
[3]; fourth hour in PBS (third of the next three hours)
  DEE (FIG. 7, in-vitro drug release): 97%
[3]; second hour in PBS (first of the next three hours)
  DEE (FIG. 7, in-vitro drug release): 94%
[3]; third hour in PBS (second of the next three hours)
  DEE (FIG. 7, in-vitro drug release): 97%

Source: US9393313B2, “Drug entrapment efficiency and sustained drug release of chloramphenicol loaded polymeric-iron nanoparticles” (priority 2014, dated 2016)
